In paper PMC9126595, “Identification of 3-(piperazinylmethyl)benzofuran derivatives as novel type II CDK2 inhibitors: design, synthesis, biological evaluation, and in silico insights” (Journal of Enzyme Inhibition and Medicinal Chemistry, 2022):
Where two headings read alike, the source gives them in different places.

How the values were obtained:
[1] = tested on: Panc-1 pancreatic cancer cell line; assay: SRB anti-proliferative assay, Panc-1; format: cell-based, human; conditions: read-out: IC50 Panc-1
Description: (§1) The experimental details for the performed biological assays; Sulforhodamine B (SRB) cytotoxicity, CDK2 kinase, Annexin V-FITC apoptosis, and cell cycle assays[86–89] were mentioned in the Supporting Information.
(§2) 1. Anti-proliferative activity assay
(§3) The examined human pancreatic cancer (Panc-1), breast cancer (MCF-7), and lung carcinoma (A549) cell lines have been obtained from American Type Culture Collection (ATCC). The cells were maintained in Dulbecco's modified Eagle's medium (DMEM) supplemented with 10% heat inactivated fetal calf serum (GIBCO), penicillin (100 U/ml) and streptomycin (100 µg/ml) at 37 °C in humidified atmosphere containing 5% CO2. […]
(§4) a 25 cm2 flask in 5 ml of culture medium. The anti-proliferative activity of the tested 3-(piperazinylmethyl)benzofurans (9, 11, 13, 15 and 17) was measured in vitro using the Sulfo-Rhodamine-B stain (SRB) assay. Briefly, cells were plated out in 96-well microtiter plate (0.5X10^4 cells/well) and incubated for 24 h before treatment with the tested hybrids to allow cells to attach to the bottom of the well of the plate. Tested benzofurans were dissolved in DMSO at 1 mg/ml immediately before use and diluted to the appropriate volume just before addition to the cell culture. Different concentrations of tested benzofurans, and Staurosporine were added to the cells (three wells were prepared for each individual dose). Cells were incubated with the hybrids for 48 […]
(§5) After 48 h cells were fixed, washed, and stained for 30 min with 0.4% (w/v) SRB dissolved in 1% acetic acid. Unbound dye was removed by four washes with 1% acetic acid, and attached stain was recovered with Tris-EDTA buffer. Color intensity was measured in an ELISA reader. The relation between percent of surviving fraction and log drug concentration is plotted to get the survival curve for each cell line. […]

[2] = tested on: MCF-7 breast cancer cell line; assay: SRB anti-proliferative assay, MCF-7; format: cell-based, human; conditions: read-out: IC50 MCF-7
Description: as §1, §2, §3, §4, §5

[3] = tested on: A-549 lung carcinoma cell line; assay: SRB anti-proliferative assay, A-549; format: cell-based, human; conditions: read-out: IC50 A-549
Description: as §1, §2, §3, §4, §5

CDK2 = biological target: T1, CDK2 (Homo sapiens, UniProt P24941); assay: CDK2 kinase inhibitory assay (Promega CDK2 Kinase Enzyme System); format: biochemical; conditions: mean ± SD of three separate experiments
T1 construct: purchased Promega V2971
Description: The experimental details for the performed biological assays; Sulforhodamine B (SRB) cytotoxicity, CDK2 kinase, Annexin V-FITC apoptosis, and cell cycle assays[86–89] were mentioned in the Supporting Information. […]
4. CDK Kinase Inhibitory Activity
CDK2 Kinase Enzyme System (catalog No. V2971) (Promega, Milan, Italy), according to the
manufacturer’s instructions. […]

[4] = tested on: non-tumorigenic human lung fibroblast MRC-5 cell line; assay: Normal cell cytotoxicity, MRC-5; format: cell-based
Method: To test the safety of the newly synthesised compounds and their selectivity towards cancer cells, their cytotoxic activity was tested on non-tumorigenic human lung fibroblast MRC-5 cell line.

Panc-1 cells [5] = assay: Cell cycle analysis (PI flow cytometry); format: cell-based, human; conditions: Panc-1, IC50 dose, 24 h; for proportion of cells in sub-G1 phase: control 2.36%; for proportion of cells in G2/M phase: control 12.17%; for cells population in S phase: control 41.90%; for cells population in G0/G1 phase: control 43.57%
Method: as §3
a 25 cm2 flask in 5 ml of culture medium. […]
The concentration required for […]
concentration), and then cells were washed twice with ice-cold phosphate buffered saline (PBS).
Subsequently, the treated cells were collected by centrifugation, fixed in ice-cold 70% (v/v) ethanol, washed with PBS, re-suspended with 100 μg/mL RNase, stained with 40 μg/mL PI, and analyzed by flow cytometry using FACS Calibur (Becton Dickinson, BD, Franklin Lakes, NJ, USA). The cell cycle distributions were calculated using CellQuest software 5.1 (Becton

Panc-1 cells [6] = assay: Annexin V-FITC/PI apoptosis assay; format: cell-based, human; conditions: Panc-1, IC50 concentration; for total apoptotic cells percentage: control 2.41%; for early apoptotic phase percentage: lower right quadrant, control 0.59%; for late apoptotic phase percentage: upper right quadrant, control 0.32%
Method: Anx V flowcytometry assay is featured as a helpful tool to determine whether cells death is due to the physiological apoptosis or to the non-specific necrosis.
3. Annexin V-FITC Apoptosis Assay
Phosphatidylserine externalization was assayed using Annexin V-FITC/PI apoptosis detection kit (BD Biosciences, USA) according to the manufacturer’s instructions. Pancreatic cancer Panc-1 […]
concentration. Briefly, cells were then harvested via trypsinization, and rinsed twice in PBS followed by binding buffer. Moreover, cells were re-suspended in 100 μL of binding buffer with the addition of 1 μL of FITC-Annexin V followed by an incubation period of 30 min at 4 °C. Cells were then rinsed in binding buffer and resuspended in 150 μL of binding buffer with the addition

[7] = SRB, 48 h, mean of 3 separate experiments
[8] = Homo sapiens, PANC-1, SRB, 48 h, mean of 3 separate experiments
[9] = Homo sapiens, MCF7, SRB, 48 h, mean of 3 separate experiments
[10] = Homo sapiens, A549, SRB, 48 h, mean of 3 separate experiments
[11] = MRC5, normal lung fibroblasts, mean of three separate experiments, read-out: IC50 MRC-5

Compound | IC50 (CDK2) [µM] | IC50 [1, 8] [µM] | IC50 [2, 9] [µM] | IC50 [3, 10] [µM] | IC50 [4, 11] [µM] | melting point [°C] | other results
N.N.[Cl][Pt][Cl] [Cisplatin, reference compound] | – | – | – | – | – | – | IC50 [1, 7]: 6.98 ± 0.35 µM; IC50 [2, 7]: 5.45 ± 0.4 µM; IC50 [3, 7]: 6.72 ± 0.37 µM
O=C(NNC(=S)Nc1ccccc1)c1oc2ccccc2c1CN1CCN(c2ccccc2)CC1 [Compound 9a] | 0.322 ± 0.016 | 86.9 ± 4.17 | 118 ± 6.02 | 85.5 ± 6.21 | 406 ± 21 | 198 to 200 | –
COc1cccc(NC(=S)NNC(=O)c2oc3ccccc3c2CN2CCN(c3ccccc3)CC2)c1 [Compound 9b] | 0.0849 ± 0.0043 | 61.9 ± 3.48 | 98.5 ± 4.47 | 80.4 ± 4.87 | 289 ± 19 | – | –
COc1ccc(NC(=S)NNC(=O)c2oc3ccccc3c2CN2CCN(c3ccccc3)CC2)cc1 [Compound 9c] | 0.214 ± 0.011 | 103 ± 6.21 | 86.6 ± 5.28 | 72.2 ± 5.36 | 261 ± 20 | 182 to 184 | –
O=C(NNC(=S)Nc1cccc(F)c1)c1oc2ccccc2c1CN1CCN(c2ccccc2)CC1 [Compound 9d] | 0.0777 ± 0.041 | 27.2 ± 1.87 | 53.9 ± 3.57 | 40.4 ± 2.74 | 166 ± 14 | – | –
O=C(NNC(=S)Nc1ccc(F)cc1)c1oc2ccccc2c1CN1CCN(c2ccccc2)CC1 [Compound 9e] | 0.065 ± 0.0033 | 3.29 ± 0.2 | 5.89 ± 0.43 | 5.24 ± 0.4 | 52 ± 3 | 218 to 220 | –
O=C(NNC(=S)Nc1cccc(Cl)c1)c1oc2ccccc2c1CN1CCN(c2ccccc2)CC1 [Compound 9f] | 0.119 ± 0.0061 | 126 ± 7.06 | 127 ± 7.56 | 127 ± 7.61 | 391 ± 25 | – | –
O=C(NNC(=S)Nc1ccc(Cl)cc1)c1oc2ccccc2c1CN1CCN(c2ccccc2)CC1 [Compound 9g] | 0.0698 ± 0.0036 | 122 ± 6.34 | 121 ± 8.39 | 111 ± 6.38 | 342 ± 30 | 197 to 199 | –
O=C(NNC(=S)Nc1cccc(C(F)(F)F)c1)c1oc2ccccc2c1CN1CCN(c2ccccc2)CC1 [Compound 9h] | 0.0409 ± 0.0021 | 0.94 ± 0.1 | 2.92 ± 0.17 | 1.71 ± 0.12 | 27.7 ± 1.8 | – | proportion of cells in sub-G1 phase (Panc-1 cells [5]): 30.32%; proportion of cells in G2/M phase (Panc-1 cells [5]): 32.46%; cells population in S phase (Panc-1 cells [5]): 16.66%; cells population in G0/G1 phase (Panc-1 cells [5]): 20.56%; total apoptotic cells percentage (Panc-1 cells [6]): 43.51%; early apoptotic phase percentage (Panc-1 cells [6]): 5.41%; late apoptotic phase percentage (Panc-1 cells [6]): 20.99%
CC(=O)c1ccc(NC(=S)NNC(=O)c2oc3ccccc3c2CN2CCN(c3ccccc3)CC2)cc1 [Compound 9i] | 0.0894 ± 0.00462 | 19.2 ± 1.27 | 27.3 ± 2.05 | 29.2 ± 2.06 | 142 ± 11 | – | –
O=C(NNC(=O)c1oc2ccccc2c1CN1CCN(c2ccccc2)CC1)Nc1ccccc1 [Compound 11a] | – | – | – | – | – | – | IC50 ([1]; Homo sapiens, PANC-1, 48 h): 56.8 ± 2.94 µM; IC50 ([2]; Homo sapiens, MCF7, 48 h): 55.9 ± 3.18 µM; IC50 ([3]; Homo sapiens, A549, 48 h): 49.3 ± 3.27 µM; IC50 ([4]; MRC5, read-out: IC50 MRC-5): 178 ± 13 µM
COc1cccc(NC(=O)NNC(=O)c2oc3ccccc3c2CN2CCN(c3ccccc3)CC2)c1 [Compound 11b] | – | – | – | – | – | – | IC50 ([1]; Homo sapiens, PANC-1, 48 h): 10.2 ± 0.86 µM; IC50 ([2]; Homo sapiens, MCF7, 48 h): 15.2 ± 1.34 µM; IC50 ([3]; Homo sapiens, A549, 48 h): 13.8 ± 1.04 µM; IC50 ([4]; MRC5, read-out: IC50 MRC-5): 121 ± 10 µM
COc1ccc(NC(=O)NNC(=O)c2oc3ccccc3c2CN2CCN(c3ccccc3)CC2)cc1 [Compound 11c] | – | – | – | – | – | – | IC50 ([1]; Homo sapiens, PANC-1, 48 h): 61.5 ± 4.52 µM; IC50 ([2]; Homo sapiens, MCF7, 48 h): 76.9 ± 5.21 µM; IC50 ([3]; Homo sapiens, A549, 48 h): 57 ± 2.33 µM; IC50 ([4]; MRC5, read-out: IC50 MRC-5): 246 ± 13 µM
O=C(NNC(=O)c1oc2ccccc2c1CN1CCN(c2ccccc2)CC1)Nc1ccc(Cl)c(C(F)(F)F)c1 [Compound 11d] | – | – | – | – | – | – | IC50 ([1]; Homo sapiens, PANC-1, 48 h): 2.22 ± 0.13 µM; IC50 ([2]; Homo sapiens, MCF7, 48 h): 5.57 ± 0.47 µM; IC50 ([3]; Homo sapiens, A549, 48 h): 2.99 ± 0.21 µM; IC50 ([4]; MRC5, read-out: IC50 MRC-5): 74 ± 5 µM; proportion of cells in sub-G1 phase (Panc-1 cells [5]): 23.04%; proportion of cells in G2/M phase (Panc-1 cells [5]): 27.52%; cells population in S phase (Panc-1 cells [5]): 22.61%; cells population in G0/G1 phase (Panc-1 cells [5]): 26.83%; total apoptotic cells percentage (Panc-1 cells [6]): 29.93%; early apoptotic phase percentage (Panc-1 cells [6]): 2.64%; late apoptotic phase percentage (Panc-1 cells [6]): 15.87%
COc1ccc(NC(=O)NNC(=O)c2oc3ccccc3c2CN2CCN(c3ccccc3)CC2)cn1 [Compound 11e] | – | – | – | – | – | – | IC50 ([1]; Homo sapiens, PANC-1, 48 h): 54.6 ± 4.22 µM; IC50 ([2]; Homo sapiens, MCF7, 48 h): 48.7 ± 3.54 µM; IC50 ([4]; MRC5, read-out: IC50 MRC-5): 244 ± 18 µM
O=C(NN=Cc1ccccc1)c1oc2ccccc2c1CN1CCN(c2ccccc2)CC1 [Compound 13a] | 0.152 ± 0.0077 | 169 ± 9.41 | 118 ± 8.39 | 109 ± 7.59 | > 500 | – | –
COc1cccc(C=NNC(=O)c2oc3ccccc3c2CN2CCN(c3ccccc3)CC2)c1 [Compound 13b] | 0.0656 ± 0.00331 | 1.04 ± 0.08 | 2.98 ± 0.18 | 1.71 ± 0.1 | 18.1 ± 1.3 | 176 to 178 | –
COc1ccc(C=NNC(=O)c2oc3ccccc3c2CN2CCN(c3ccccc3)CC2)cc1 [Compound 13c] | 0.0526 ± 0.0027 | 4.47 ± 0.29 | 13.6 ± 0.94 | 14.4 ± 1.02 | 121 ± 9 | 181 to 182 | –
CC(=NNC(=O)c1oc2ccccc2c1CN1CCN(c2ccccc2)CC1)c1ccccc1 [Compound 15a] | 0.333 ± 0.017 | 120 ± 5.77 | 123 ± 6.82 | 98.4 ± 5.61 | 452 ± 28 | 191 to 193 | –
COc1ccc(C(C)=NNC(=O)c2oc3ccccc3c2CN2CCN(c3ccccc3)CC2)cc1 [Compound 15b] | 0.127 ± 0.0065 | 25.4 ± 1.7 | 44.4 ± 2.96 | 28.5 ± 1.92 | 160 ± 10 | – | –
O=C(NN=C1CCCc2ccccc21)c1oc2ccccc2c1CN1CCN(c2ccccc2)CC1 [Compound 17] | 0.0656 ± 0.0033 | 80.4 ± 4.83 | 82.8 ± 5.43 | 58.9 ± 1.88 | 284 ± 15 | – | –
